From patent publication US20060019987A1, “Methods and compositions for inhibiting, destroying, and/or inactivating viruses” (priority 2004, published 2006)

Experiments:
[1] = system: hAd4 (RI-67 strain); assay: Virucidal efficacy: cytopathic effect of pretreated hAd4 in A549 cell monolayers; assay type: cell-based; conditions: hAd4 pretreated 1 h at 35° C.; 10^7 PFU (and 1:10 dilution); A549 lung epithelial cells; 2 days post infection; vs PBS-treated virus (marked CPE)
Description: (§1) The experiments included human (hAd) serotypes of species B (hAd3), C (hAd5), and E (hAd4) and the long strain of RSV, representative of A. Two independent experiments were carried out for each virus.
Phosphate buffered saline (PBS) pretreatment of virus suspensions was used as a control.
After the 1-h incubation, 100 μl of the treated virus containing a total of 10^7 to 10^6 plaque forming units (PFU) of virus or their corresponding 1:10 or 1:100 dilutions were used to infect monolayers of A549 lung epithelial cells in quadruplicate 24-well plates. […] Viral cytopathic effect was examined at 2 days post infection. One hundred μl of a dilution 1:10 of the original treated samples containing 10^6 PFU were used to infect additional wells. (C: PBS-treated 1:10; E: SinoFresh® product-treated 1:10; G: CPC-treated 1:10).

[2] = system: RSV (Long strain); assay: Virucidal efficacy: syncytia formation by pretreated RSV in Hep-2 cell monolayers; assay type: cell-based; conditions: RSV pretreated 1 h at 35° C.; Hep-2 cells; two experiments (starting 10^7 PFU and 109 PFU); 0.05% CPC
Description: as §1
One hundred microliters (μl) of each virus suspension containing 5×10^6 PFU or 5×10^5 PFU were subsequently used to infect monolayers of Hep-2 cells in quadruplicate in 24-well plates. […] Viral cytopathic effect was examined at 2 days post infection. One hundred μl of a dilution 1:10 of the original treated samples containing […] were used to infect additional wells (Block C: PBS-treated 1:10; E: SinoFresh® product-treated 1:10; G: CPC-treated 1:10).
A second independent experiment was carried out with a starting concentration of 10^9 PFU.

Compound: CCCCCCCCCCCCCCCC[n+]1ccccc1 [CPC, 1-hexa-decyl pyridinium chloride]
- development of cytopathic effect (CPE) [1]: no obvious CPE
- syncytia formation in infected monolayers [2]: prevented syncytia formation
